Measured values reported in PMC4965148 (PLoS ONE, 2016).
“And” between values parts separate entries of the source, which are not always exact repeats. Equal values may be shown once. Read-outs that look alike come from different tables or passages of the source.

Columns and labels:
[1] = biological target: T1, HEK293/rat α7 nAChR cells (Rattus norvegicus, UniProt Q05941); assay: Whole cell voltage clamp electrophysiology; format: cell-based; conditions: for Net Charge (Current Area) normalized to 300 µM ACh / Peak Current normalized to 3 mM ACh: individual cells; for mean ± SEM peak current Ymax: n = 5
T1 construct: expressed in transfected cells
T1 sequence (Q05941 23-502): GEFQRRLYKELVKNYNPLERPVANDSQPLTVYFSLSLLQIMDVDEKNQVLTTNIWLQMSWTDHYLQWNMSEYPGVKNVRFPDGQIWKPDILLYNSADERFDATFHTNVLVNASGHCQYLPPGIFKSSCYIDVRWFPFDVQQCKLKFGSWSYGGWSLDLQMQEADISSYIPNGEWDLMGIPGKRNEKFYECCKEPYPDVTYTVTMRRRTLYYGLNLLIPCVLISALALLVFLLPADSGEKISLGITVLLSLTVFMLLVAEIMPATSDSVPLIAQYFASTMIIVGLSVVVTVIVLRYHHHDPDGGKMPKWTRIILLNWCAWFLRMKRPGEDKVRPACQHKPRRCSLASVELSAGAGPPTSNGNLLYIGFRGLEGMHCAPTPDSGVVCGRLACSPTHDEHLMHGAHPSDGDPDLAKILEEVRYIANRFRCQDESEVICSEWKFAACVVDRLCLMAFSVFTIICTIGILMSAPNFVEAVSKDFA
Description: Whole-cell voltage clamp studies were conducted on HEK293/rat α7 or HEK293/human α7 nAChR cells. […] Atropine (1 μM) was included in the bathing solution. […] Cells were voltage clamped at a holding potential of -90 mV. Using the Dynaflow microfluidic perfusion system (Cellectricon; flow 26 μl/min) responses to a 300 ms application of ACh or α7 nAChR agonists were measured. Currents were filtered at 2 kHz and sampled at 10 kHz using an EPC-9 amplifier and HEKA Pulse/Patchmaster software. […] The peak current amplitude and net charge crossing the membrane (i.e. the area under the current response curve) induced by agonist application were measured using Clampfit (pClamp Suite) and normalized to the maximal response induced by ACh (3 mM ACh for peak current amplitude and 300 μM ACh for net charge).

[2] = tested on: MK-801 treated Sprague Dawley rats; assay: Rat MK-801 set shift procedure; format: in vivo
Description: Studies followed the methods described in detail in [19] and are briefly summarized here. All rats were singly housed and food-restricted (15g/rat/day) for 7 days prior to initiation of training and for the duration of the study. At the time of testing, the average (± SEM) body weight for individual treatment groups ranged from 168 ± 4 g to 180 ± 6 g. Prior to the study several habituation sessions were conducted to familiarize subjects to the maze and task requirements. The maze consisted of 4 arms (40 cm long x 14 cm wide x 20 cm high) arranged in a ‘+’ configuration and the walls and floor of each arm were distinct and colored either black or white with either a rough or smooth texture (i.e. 1 arm with each of the following combinations: white/smooth, white/rough, black/smooth, black/rough). […] The arm opposite the blocked arm was designated as the ‘start arm’ and only 1 of the 2 remaining arms was baited with food pellets. The set shift procedure comprised 2 test sessions conducted over 2 consecutive days. On the first day (Set 1) rats were required to learn the association of either the color or texture of the maze arms with the location of a food reward. Animals were randomly assigned a correct exemplar within a given dimension as being predictive of reward with 50% of the rats assigned color and 50% assigned texture. Each rat was given a maximum of 120 trials on the maze which was rotated 90 degrees between successive trials so that the adjacent arms now became either the ‘start arm’ or the arm that was blocked. Animals were allowed to visit 1 of the 2 open arms and the trial recorded as correct if the arm with the pre-assigned exemplar was visited and the food reward retrieved. The inter-trial interval was 15 s. Rats were required to achieve a performance criterion of 8 consecutive entries into the rewarded arm at which point testing stopped and the animal was presumed to have learnt the association between the correct exemplar in the assigned dimension and food reward. On day 2 (Set 2) animals were again tested in the maze configured as described for Set 1 with the exception that the dimension predicting food reward was now switched (i.e. animals trained on color for Set 1 were switched to texture and visa versa). Correct performance was again defined as 8 consecutive entries into the rewarded arm with a maximal number of 80 trials allowed. All dosing was administered on day 2 prior to Set 2 testing.

[3] = Plasma and brain concentrations after dosing; format: in vivo, mouse; conditions: for Brain Mean ± SD / concentration at 30 min / Kp at 30 min: 30 min; for concentration at 60 min: sc, Mouse MK-801 Y Maze
Description: Occupancy determinations were made either on completion of behavioral testing or in satellite groups of animals dosed in parallel with behavioral testing. At specified time points after dosing, the forebrain (for occupancy), the remaining hindbrain (for brain drug exposure) and plasma were collected, frozen in chilled isopentane and stored at -80°C until assayed. […] Homogenized tissue aliquots were frozen immediately and stored at -80°C. […] Non-specific binding was defined by adding 25 μM MLA to wells containing tissues from vehicle-treated animals. […] The filters were washed with ice-cold assay buffer, punched into a clear plate and 200 μl scintillation fluid added per well. Bound radioactivity was measured using a Wallac Microbeta liquid scintillation counter. Specific binding was calculated by subtracting the value of the non-specific binding from that of the total binding in each sample. The percent occupancy was calculated as [1 –(specific binding in drug treated mice/specific binding in vehicle treated mice)] x 100.
In brief, 50 μL of the plasma sample was extracted by protein precipitation with 150 μL acetonitrile containing an internal standard and 5 μL of supernatant injected into the LC-MS/MS system. Analytes were separated by reversed phase chromatography and detection of each analyte was achieved through selected reaction monitoring mode of mass spectrometry.

Acetylcholinesterase = Acetylcholinesterase (Electrophorus electricus, UniProt O42275); assay: Selectivity panel, enzyme; format: biochemical; conditions: Eel
Sequence of Acetylcholinesterase (O42275 24-633): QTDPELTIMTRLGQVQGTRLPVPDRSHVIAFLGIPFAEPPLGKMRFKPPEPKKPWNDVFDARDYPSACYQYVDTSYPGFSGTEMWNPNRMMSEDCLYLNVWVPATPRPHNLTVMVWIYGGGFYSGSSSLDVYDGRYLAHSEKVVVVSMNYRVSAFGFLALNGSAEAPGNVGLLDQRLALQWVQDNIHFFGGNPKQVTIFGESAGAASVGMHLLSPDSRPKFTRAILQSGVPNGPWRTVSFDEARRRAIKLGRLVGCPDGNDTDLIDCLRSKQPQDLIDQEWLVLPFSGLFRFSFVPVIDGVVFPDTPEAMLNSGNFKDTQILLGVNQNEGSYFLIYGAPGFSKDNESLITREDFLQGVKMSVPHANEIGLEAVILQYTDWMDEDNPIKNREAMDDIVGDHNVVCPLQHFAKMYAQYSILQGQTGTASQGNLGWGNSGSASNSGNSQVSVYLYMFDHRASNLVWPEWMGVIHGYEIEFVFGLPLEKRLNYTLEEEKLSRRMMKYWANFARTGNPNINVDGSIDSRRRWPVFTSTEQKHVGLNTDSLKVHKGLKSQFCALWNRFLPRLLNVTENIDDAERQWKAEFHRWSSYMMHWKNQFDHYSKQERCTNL

Adrenergic α2A = Adrenergic α2A (Homo sapiens, UniProt P08913); assay: Selectivity panel, binding
Sequence of Adrenergic α2A (P08913 whole entry): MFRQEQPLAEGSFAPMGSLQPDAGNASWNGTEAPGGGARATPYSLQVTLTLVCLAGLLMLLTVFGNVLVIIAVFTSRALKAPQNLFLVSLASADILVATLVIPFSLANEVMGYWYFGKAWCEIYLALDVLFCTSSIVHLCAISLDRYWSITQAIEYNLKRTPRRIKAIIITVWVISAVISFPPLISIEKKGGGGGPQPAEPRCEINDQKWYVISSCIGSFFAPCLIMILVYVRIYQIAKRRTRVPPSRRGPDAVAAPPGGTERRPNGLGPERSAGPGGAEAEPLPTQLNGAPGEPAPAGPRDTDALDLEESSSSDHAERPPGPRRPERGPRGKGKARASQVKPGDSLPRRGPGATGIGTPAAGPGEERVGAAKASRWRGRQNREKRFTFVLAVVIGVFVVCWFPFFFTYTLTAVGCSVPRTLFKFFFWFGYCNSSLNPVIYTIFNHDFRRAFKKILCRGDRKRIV

Adrenergic α2C = Adrenergic α2C (Homo sapiens, UniProt P18825); assay: Selectivity panel, binding
Sequence of Adrenergic α2C (P18825 whole entry): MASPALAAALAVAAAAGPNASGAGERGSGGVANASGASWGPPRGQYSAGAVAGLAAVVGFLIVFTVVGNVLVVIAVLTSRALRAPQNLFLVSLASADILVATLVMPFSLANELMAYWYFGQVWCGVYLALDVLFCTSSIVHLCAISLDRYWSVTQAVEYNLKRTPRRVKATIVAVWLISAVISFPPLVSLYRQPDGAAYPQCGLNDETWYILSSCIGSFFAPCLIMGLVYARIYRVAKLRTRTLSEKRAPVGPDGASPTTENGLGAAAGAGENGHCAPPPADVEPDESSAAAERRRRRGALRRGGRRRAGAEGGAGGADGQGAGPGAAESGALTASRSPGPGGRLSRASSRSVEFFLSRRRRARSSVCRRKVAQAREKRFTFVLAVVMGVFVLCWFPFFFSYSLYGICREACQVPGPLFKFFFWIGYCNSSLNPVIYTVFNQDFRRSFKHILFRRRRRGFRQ

Dopamine transporter = Dopamine transporter (Homo sapiens, UniProt Q01959); assay: Selectivity panel, binding
Sequence of Dopamine transporter (Q01959 whole entry): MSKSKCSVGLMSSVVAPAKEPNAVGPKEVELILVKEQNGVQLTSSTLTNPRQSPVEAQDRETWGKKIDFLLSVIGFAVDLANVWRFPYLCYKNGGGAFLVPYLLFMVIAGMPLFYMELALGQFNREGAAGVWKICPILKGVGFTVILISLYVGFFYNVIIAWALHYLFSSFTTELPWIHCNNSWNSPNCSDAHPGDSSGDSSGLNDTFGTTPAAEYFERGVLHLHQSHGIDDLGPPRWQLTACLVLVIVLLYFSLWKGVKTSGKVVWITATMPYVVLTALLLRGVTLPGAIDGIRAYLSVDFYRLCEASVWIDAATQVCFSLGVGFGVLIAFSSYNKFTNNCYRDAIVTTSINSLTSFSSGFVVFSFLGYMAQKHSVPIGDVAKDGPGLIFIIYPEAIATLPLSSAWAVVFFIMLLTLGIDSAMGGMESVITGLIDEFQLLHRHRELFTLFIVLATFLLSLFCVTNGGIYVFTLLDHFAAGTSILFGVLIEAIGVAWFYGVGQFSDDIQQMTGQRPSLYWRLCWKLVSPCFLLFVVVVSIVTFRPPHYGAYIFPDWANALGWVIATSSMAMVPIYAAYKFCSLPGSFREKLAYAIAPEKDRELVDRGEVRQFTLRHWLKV

Estrogen receptor alpha = Estrogen receptor alpha (Homo sapiens, UniProt P03372); assay: Selectivity panel, binding
GABA-A α1β2γ2 = GABA-A α1β2γ2 (Homo sapiens, UniProt P14867+P18507+P47870); assay: Selectivity panel, functional; format: cell-based
Sequence of GABA-A α1β2γ2 (P14867 28-456): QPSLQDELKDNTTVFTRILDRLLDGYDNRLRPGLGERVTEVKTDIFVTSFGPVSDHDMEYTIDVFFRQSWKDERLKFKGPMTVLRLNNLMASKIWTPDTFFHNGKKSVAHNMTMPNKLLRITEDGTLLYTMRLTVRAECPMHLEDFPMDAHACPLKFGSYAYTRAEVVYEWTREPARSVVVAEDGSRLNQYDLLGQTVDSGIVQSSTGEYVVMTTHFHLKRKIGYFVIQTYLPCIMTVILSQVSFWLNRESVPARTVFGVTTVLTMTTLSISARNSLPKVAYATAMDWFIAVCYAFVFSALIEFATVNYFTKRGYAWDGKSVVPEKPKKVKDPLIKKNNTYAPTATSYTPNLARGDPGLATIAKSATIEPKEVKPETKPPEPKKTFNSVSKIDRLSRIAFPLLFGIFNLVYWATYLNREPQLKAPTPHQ
Sequence of GABA-A α1β2γ2 (P47870 25-512 limits assumed): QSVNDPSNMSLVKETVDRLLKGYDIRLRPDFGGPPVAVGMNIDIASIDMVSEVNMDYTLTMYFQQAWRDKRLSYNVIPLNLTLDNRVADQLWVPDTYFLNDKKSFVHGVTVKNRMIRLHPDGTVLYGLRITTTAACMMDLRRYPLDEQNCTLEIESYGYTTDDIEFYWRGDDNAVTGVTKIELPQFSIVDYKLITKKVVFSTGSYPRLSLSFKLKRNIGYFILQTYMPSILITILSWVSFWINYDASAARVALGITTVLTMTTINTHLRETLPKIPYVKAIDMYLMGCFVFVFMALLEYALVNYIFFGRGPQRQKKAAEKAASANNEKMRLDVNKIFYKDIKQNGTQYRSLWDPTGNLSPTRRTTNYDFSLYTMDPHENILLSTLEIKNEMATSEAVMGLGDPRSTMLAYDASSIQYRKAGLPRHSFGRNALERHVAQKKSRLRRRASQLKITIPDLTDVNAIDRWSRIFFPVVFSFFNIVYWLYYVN
Sequence of GABA-A α1β2γ2 (P18507 40-475): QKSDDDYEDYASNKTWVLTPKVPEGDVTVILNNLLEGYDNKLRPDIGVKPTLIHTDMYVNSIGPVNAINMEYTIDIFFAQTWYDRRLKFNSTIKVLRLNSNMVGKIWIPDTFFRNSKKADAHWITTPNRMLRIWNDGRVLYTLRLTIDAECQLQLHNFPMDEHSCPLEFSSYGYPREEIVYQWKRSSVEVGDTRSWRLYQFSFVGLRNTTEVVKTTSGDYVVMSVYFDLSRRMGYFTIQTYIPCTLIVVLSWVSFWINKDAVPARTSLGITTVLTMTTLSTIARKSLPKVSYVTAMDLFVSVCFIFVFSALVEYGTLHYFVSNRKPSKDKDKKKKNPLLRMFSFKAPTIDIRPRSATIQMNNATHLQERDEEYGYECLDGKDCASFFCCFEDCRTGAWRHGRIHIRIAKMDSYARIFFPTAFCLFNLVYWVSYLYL

Muscarinic M5 = Muscarinic M5 (Homo sapiens, UniProt P08912); assay: Selectivity panel, binding; conditions: read-out: % inhibition @ 10 µM
[4] = biological target: Norepinephrine transporter (Homo sapiens, UniProt P23975); assay: Selectivity panel, binding
Opiate Mu = Opiate Mu (Homo sapiens, UniProt P35372); assay: Selectivity panel, binding
PDE4 = assay: Selectivity panel, enzyme; format: biochemical; conditions: Human
5-HT transporter = 5-HT transporter (Homo sapiens, UniProt P31645); assay: Selectivity panel, binding
Sequence of 5-HT transporter (P31645 whole entry): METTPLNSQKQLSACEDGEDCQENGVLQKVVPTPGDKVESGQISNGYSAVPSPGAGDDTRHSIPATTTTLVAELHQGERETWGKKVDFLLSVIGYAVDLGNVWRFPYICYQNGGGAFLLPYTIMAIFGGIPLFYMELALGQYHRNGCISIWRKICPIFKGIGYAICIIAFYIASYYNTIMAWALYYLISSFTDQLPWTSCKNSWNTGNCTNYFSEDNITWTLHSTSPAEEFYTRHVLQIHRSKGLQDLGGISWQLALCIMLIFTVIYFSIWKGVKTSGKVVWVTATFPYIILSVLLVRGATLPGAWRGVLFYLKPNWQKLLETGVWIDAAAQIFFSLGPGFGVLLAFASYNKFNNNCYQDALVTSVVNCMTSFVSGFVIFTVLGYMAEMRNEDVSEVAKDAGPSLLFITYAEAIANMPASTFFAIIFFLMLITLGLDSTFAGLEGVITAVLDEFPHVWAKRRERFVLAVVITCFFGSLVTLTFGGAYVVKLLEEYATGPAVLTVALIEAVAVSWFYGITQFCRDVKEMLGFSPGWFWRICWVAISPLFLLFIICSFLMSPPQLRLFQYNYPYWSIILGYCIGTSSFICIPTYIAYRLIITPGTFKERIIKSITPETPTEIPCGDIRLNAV

## c1cn(-c2cc(NC3=NC[C@@]4(CN5CCC4CC5)O3)ncn2)cn1 [BMS-933043, (2R)-N-(6-(1H-imidazol-1-yl)-4-pyrimidinyl)-4'H-spiro[4-azabicyclo[2.2.2]octane-2,5'-[1,3]oxazol]-2'-amine]
[1]
  EC50: 0.14 ± 0.03 µM
[1]; 0.1 µM
  Net Charge (Current Area) normalized to 300 µM ACh: 0.00864 and -0.014 and 0.05917 and 0.0877
  Peak Current normalized to 3 mM ACh: 0.01158 and 0.01083 and 0.01236 and 0.0131
[1]; 0.3 µM
  Net Charge (Current Area) normalized to 300 µM ACh: 0.4138 and 0.2853 and 0.4739 and 0.5256
  Peak Current normalized to 3 mM ACh: 0.04784 and 0.02829 and 0.03284 and 0.03669
[1]; 1 µM
  Net Charge (Current Area) normalized to 300 µM ACh: 0.7172 and 0.3555 and 0.6626 and 0.6549
  Peak Current normalized to 3 mM ACh: 0.07111 and 0.07356 and 0.0749 and 0.08082
[1]; 3 µM
  Net Charge (Current Area) normalized to 300 µM ACh: 0.7919 and 0.4794 and 0.6677 and 0.6569
  Peak Current normalized to 3 mM ACh: 0.1558 and 0.1519 and 0.1651 and 0.1365
[1]; 10 µM
  Net Charge (Current Area) normalized to 300 µM ACh: 0.8266 and 0.4637 and 0.7322 and 0.6673
  Peak Current normalized to 3 mM ACh: 0.2731 and 0.2904 and 0.2952 and 0.2153
[1]; BMS-933043 10 μM alone
  mean ± SEM peak current Ymax: 0.26 ± 0.03
[1]; BMS-933043 10 μM in the presence of 10 nM MLA
  mean ± SEM peak current Ymax: 0.02 ± 0.003
[1]; Rat, normalized to 300 μM ACh
  Mean ± SEM Net Charge Ymax: 0.67 ± 0.07
[1]; Rat, normalized to 3 mM ACh
  Mean ± SEM Peak Current Ymaxobs @ 10 μM: 0.27 ± 0.02
[2]; 0.3 mg/kg po / MK-801, 0.3-3 mg/kg study
  Number of trials to criteria Mean ± SEM: 66.4 ± 3.2
[2]; 1 mg/kg po / MK-801, 0.3-3 mg/kg study
  Number of trials to criteria Mean ± SEM: 54.4 ± 4.8
[2]; 3 mg/kg po / MK-801, 0.3-3 mg/kg study
  Number of trials to criteria Mean ± SEM: 50.3 ± 4.3
[2]; 3 mg/kg po / MK-801, 3-30 mg/kg study
  Number of trials to criteria Mean ± SEM: 48.3 ± 5.8
[2]; 10 mg/kg po / MK-801, 3-30 mg/kg study
  Number of trials to criteria Mean ± SEM: 54.0 ± 3.2
[2]; 30 mg/kg po / MK-801, 3-30 mg/kg study
  Number of trials to criteria Mean ± SEM: 68.0 ± 4.7
[2]; po
  perseverative errors in MK-801-treated animals: decreased perseverative errors
[3]; Mouse NOR (0.03-1 mg/kg study), 0.03 mg/kg sc
  Brain Mean ± SD: < LLQ
[3]; Mouse NOR (0.03-1 mg/kg study), 0.10 mg/kg sc
  Brain Mean ± SD: < LLQ
[3]; mouse, brain, subcutaneous, 0.3 mg/kg, Mouse NOR (0.03-1 mg/kg study), 0.30 mg/kg sc, read-out: Brain Mean ± SD
  concentration at 30 min: 24 ± 3.9 nM
[3]; mouse, brain, subcutaneous, 1 mg/kg, Mouse NOR (0.03-1 mg/kg study), 1 mg/kg sc, read-out: Brain Mean ± SD
  concentration at 30 min: 78 ± 5.2 nM
[3]; mouse, brain, subcutaneous, 1 mg/kg, Mouse NOR (1-10 mg/kg study), 1 mg/kg sc, read-out: Brain Mean ± SD
  concentration at 30 min: 97 ± 16 nM
[3]; mouse, brain, subcutaneous, 3 mg/kg, Mouse NOR (1-10 mg/kg study), 3 mg/kg sc, read-out: Brain Mean ± SD
  concentration at 30 min: 297 ± 48 nM
[3]; mouse, brain, subcutaneous, 10 mg/kg, Mouse NOR (1-10 mg/kg study), 10 mg/kg sc, read-out: Brain Mean ± SD
  concentration at 30 min: 1110 nM
[3]; mouse, brain/plasma, subcutaneous, 0.3 mg/kg, Mouse NOR (0.03-1 mg/kg study), 0.30 mg/kg sc
  Kp at 30 min: 0.12
[3]; mouse, brain/plasma, subcutaneous, 1 mg/kg, Mouse NOR (0.03-1 mg/kg study), 1 mg/kg sc
  Kp at 30 min: 0.11
[3]; mouse, brain/plasma, subcutaneous, 1 mg/kg, Mouse NOR (1-10 mg/kg study), 1 mg/kg sc
  Kp at 30 min: 0.21
[3]; mouse, brain/plasma, subcutaneous, 3 mg/kg, Mouse NOR (1-10 mg/kg study), 3 mg/kg sc
  Kp at 30 min: 0.19
[3]; mouse, brain/plasma, subcutaneous, 10 mg/kg, Mouse NOR (1-10 mg/kg study), 10 mg/kg sc
  Kp at 30 min: 0.2
[3]; mouse, brain/plasma, subcutaneous, mice, read-out: average brain/plasma
  Kp: 0.17
[3]; mouse, plasma, 0.03 mg/kg, 0.03 mg/kg sc, read-out: Plasma Mean ± SD
  concentration at 60 min: 5 ± 0.4 nM
[3]; mouse, plasma, 0.1 mg/kg, 0.10 mg/kg sc, read-out: Plasma Mean ± SD
  concentration at 60 min: 21 ± 2.4 nM
[3]; mouse, plasma, 0.3 mg/kg, 0.30 mg/kg sc, read-out: Plasma Mean ± SD
  concentration at 60 min: 94 ± 19 nM
[3]; mouse, plasma, 1 mg/kg, 1 mg/kg sc, read-out: Plasma Mean ± SD
  concentration at 60 min: 254 ± 32 nM
[3]; mouse, plasma, 3 mg/kg, 3 mg/kg sc, read-out: Plasma Mean ± SD
  concentration at 60 min: 774 ± 282 nM
[3]; mouse, plasma, 10 mg/kg, 10 mg/kg sc, read-out: Plasma Mean ± SD
  concentration at 60 min: 2980 nM
[3]; mouse, plasma, subcutaneous, 0.03 mg/kg, Mouse NOR (0.03-1 mg/kg study), 0.03 mg/kg sc, read-out: Plasma Mean ± SD
  concentration at 30 min: 14 ± 2.7 nM
[3]; mouse, plasma, subcutaneous, 0.1 mg/kg, Mouse NOR (0.03-1 mg/kg study), 0.10 mg/kg sc, read-out: Plasma Mean ± SD
  concentration at 30 min: 52 ± 3.6 nM
[3]; mouse, plasma, subcutaneous, 0.3 mg/kg, Mouse NOR (0.03-1 mg/kg study), 0.30 mg/kg sc, read-out: Plasma Mean ± SD
  concentration at 30 min: 213 ± 49 nM
[3]; mouse, plasma, subcutaneous, 1 mg/kg, Mouse NOR (0.03-1 mg/kg study), 1 mg/kg sc, read-out: Plasma Mean ± SD
  concentration at 30 min: 719 ± 69 nM
[3]; mouse, plasma, subcutaneous, 1 mg/kg, Mouse NOR (1-10 mg/kg study), 1 mg/kg sc, read-out: Plasma Mean ± SD
  concentration at 30 min: 459 ± 59 nM
[3]; mouse, plasma, subcutaneous, 3 mg/kg, Mouse NOR (1-10 mg/kg study), 3 mg/kg sc, read-out: Plasma Mean ± SD
  concentration at 30 min: 1570 nM
[3]; mouse, plasma, subcutaneous, 10 mg/kg, Mouse NOR (1-10 mg/kg study), 10 mg/kg sc, read-out: Plasma Mean ± SD
  concentration at 30 min: 5560 nM
Acetylcholinesterase
  IC50: > 60 µM
Adrenergic α2A
  IC50: > 30 µM
Adrenergic α2C
  IC50: > 30 µM
Dopamine transporter
  IC50: > 30 µM
Estrogen receptor alpha
  IC50: > 150 µM
GABA-A α1β2γ2
  IC50: > 30 µM
Muscarinic M5
  inhibition at 10 µM: 8%
[4]
  IC50: > 30 µM
Opiate Mu
  IC50: > 30 µM
PDE4
  IC50: > 30 µM
5-HT transporter
  IC50: > 30 µM
